target: T1, 3-hydroxy-3-methylglutaryl-coenzyme A reductase (Homo sapiens, UniProt P04035); assay: not given; set-up: species or system Escherichia coli; conditions: not given;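 further: enzyme inhibition assay of HMG-CoA reductase using radiolabeled [14C]HMG-CoA as substrate; in other assays of this panel Not Active means under 50% inhibition at 10 µM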
T1 sequence (P04035 whole entry): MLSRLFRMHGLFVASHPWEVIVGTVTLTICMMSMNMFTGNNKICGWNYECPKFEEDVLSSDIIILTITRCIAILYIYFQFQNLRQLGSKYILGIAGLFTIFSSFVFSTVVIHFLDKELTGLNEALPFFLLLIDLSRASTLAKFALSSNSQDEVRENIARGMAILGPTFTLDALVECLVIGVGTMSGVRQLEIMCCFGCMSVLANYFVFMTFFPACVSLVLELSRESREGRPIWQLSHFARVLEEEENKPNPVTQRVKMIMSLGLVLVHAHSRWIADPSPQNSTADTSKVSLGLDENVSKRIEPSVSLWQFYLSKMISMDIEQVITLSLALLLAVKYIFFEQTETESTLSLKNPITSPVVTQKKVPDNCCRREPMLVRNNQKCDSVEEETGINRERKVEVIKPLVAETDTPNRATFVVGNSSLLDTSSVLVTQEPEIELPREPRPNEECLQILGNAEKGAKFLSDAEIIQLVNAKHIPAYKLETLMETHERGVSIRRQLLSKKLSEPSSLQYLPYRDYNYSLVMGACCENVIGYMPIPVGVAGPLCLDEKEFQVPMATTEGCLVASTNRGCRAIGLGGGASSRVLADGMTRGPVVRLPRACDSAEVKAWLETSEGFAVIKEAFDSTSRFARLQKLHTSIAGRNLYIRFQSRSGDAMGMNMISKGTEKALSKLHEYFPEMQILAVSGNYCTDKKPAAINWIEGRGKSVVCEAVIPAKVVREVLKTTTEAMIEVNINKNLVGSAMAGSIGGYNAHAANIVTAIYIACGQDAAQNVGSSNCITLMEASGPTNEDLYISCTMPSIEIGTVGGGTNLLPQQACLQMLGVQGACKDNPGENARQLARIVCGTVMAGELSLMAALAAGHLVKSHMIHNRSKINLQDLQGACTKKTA

Row | SMILES | IC50
1 | O=P1(NCCCl)OCCCN1CCCl (stereo unspecified) [IFOSFAMIDE] | Not Active
2 | Nc1nc(=O)[nH]cc1F [FLUCYTOSINE] | Not Active
3 | N#C[C@H](O[C@@H]1O[C@H](CO[C@@H]2O[C@H](CO)[C@@H](O)[C@H](O)[C@H]2O)[C@@H](O)[C@H](O)[C@H]1O)c1ccccc1 [AMYGDALIN] | Not Active

target: Platelet-activating factor receptor (Homo sapiens, UniProt P25105); assay: biochemical; format: tissue-based; conditions: platelet; further: in other assays of this panel Not Active means under 50% inhibition at 10 µM
Sequence (P25105 whole entry): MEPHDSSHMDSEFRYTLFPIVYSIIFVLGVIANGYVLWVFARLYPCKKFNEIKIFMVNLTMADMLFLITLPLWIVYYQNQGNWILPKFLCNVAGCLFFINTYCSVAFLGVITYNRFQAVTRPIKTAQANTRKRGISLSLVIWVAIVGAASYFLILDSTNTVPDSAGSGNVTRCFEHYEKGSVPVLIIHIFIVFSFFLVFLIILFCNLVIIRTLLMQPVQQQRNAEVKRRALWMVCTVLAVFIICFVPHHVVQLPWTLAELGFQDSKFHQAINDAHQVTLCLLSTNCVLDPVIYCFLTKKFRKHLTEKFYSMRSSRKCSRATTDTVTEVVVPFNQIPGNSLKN

Row | SMILES | IC50
4 | O=P1(NCCCl)OCCCN1CCCl (stereo unspecified) [IFOSFAMIDE] | Not Active
5 | Nc1nc(=O)[nH]cc1F [FLUCYTOSINE] | Not Active
6 | N#C[C@H](O[C@@H]1O[C@H](CO[C@@H]2O[C@H](CO)[C@@H](O)[C@H](O)[C@H]2O)[C@@H](O)[C@H](O)[C@H]1O)c1ccccc1 [AMYGDALIN] | Not Active

target: D(3) dopamine receptor (Homo sapiens, UniProt P35462); assay: DRUGMATRIX: Dopamine D3 radioligand binding (ligand: [3H] Spiperone); format: cell membranes, CHO, Membrane; conditions: cho
Sequence (P35462 whole entry): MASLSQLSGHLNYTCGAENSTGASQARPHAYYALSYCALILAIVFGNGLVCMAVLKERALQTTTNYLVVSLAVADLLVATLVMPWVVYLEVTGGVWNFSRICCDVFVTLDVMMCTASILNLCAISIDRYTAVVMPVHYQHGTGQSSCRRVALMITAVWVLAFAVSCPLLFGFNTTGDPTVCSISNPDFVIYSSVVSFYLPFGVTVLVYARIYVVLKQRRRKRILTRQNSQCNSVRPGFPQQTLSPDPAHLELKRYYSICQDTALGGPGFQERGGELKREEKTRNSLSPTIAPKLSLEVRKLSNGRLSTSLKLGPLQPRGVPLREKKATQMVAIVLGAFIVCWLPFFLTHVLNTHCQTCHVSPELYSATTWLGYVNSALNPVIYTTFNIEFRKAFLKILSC

Row | SMILES | IC50
7 | O=P1(NCCCl)OCCCN1CCCl (stereo unspecified) [IFOSFAMIDE] | Not Active
8 | Nc1nc(=O)[nH]cc1F [FLUCYTOSINE] | Not Active
9 | N#C[C@H](O[C@@H]1O[C@H](CO[C@@H]2O[C@H](CO)[C@@H](O)[C@H](O)[C@H]2O)[C@@H](O)[C@H](O)[C@H]1O)c1ccccc1 [AMYGDALIN] | Not Active

system: not listed separately; assay: DRUGMATRIX: Glutamate, NMDA, Phencyclidine radioligand binding (ligand: [3H] TCP); format: cell membranes, Rattus norvegicus, Wistar, Cerebral cortex, Membrane; conditions: Not Active = under 50% inhibition at 10 µM

Row | SMILES | IC50 | Ki
10 | O=P1(NCCCl)OCCCN1CCCl (stereo unspecified) [IFOSFAMIDE] | Not Active | Not Active
11 | Nc1nc(=O)[nH]cc1F [FLUCYTOSINE] | Not Active | Not Active
12 | N#C[C@H](O[C@@H]1O[C@H](CO[C@@H]2O[C@H](CO)[C@@H](O)[C@H](O)[C@H]2O)[C@@H](O)[C@H](O)[C@H]1O)c1ccccc1 [AMYGDALIN] | Not Active | Not Active

system: not listed separately; assay: DRUGMATRIX: Glutamate, NMDA, Agonism radioligand binding (ligand: [3H] CGP-39653); format: cell membranes, Rattus norvegicus, Wistar, Cerebral cortex, Membrane; conditions: Not Active = under 50% inhibition at 10 µM

Row | SMILES | IC50 | Ki
13 | O=P1(NCCCl)OCCCN1CCCl (stereo unspecified) [IFOSFAMIDE] | Not Active | Not Active
14 | Nc1nc(=O)[nH]cc1F [FLUCYTOSINE] | Not Active | Not Active
15 | N#C[C@H](O[C@@H]1O[C@H](CO[C@@H]2O[C@H](CO)[C@@H](O)[C@H](O)[C@H]2O)[C@@H](O)[C@H](O)[C@H]1O)c1ccccc1 [AMYGDALIN] | Not Active | Not Active

target: T2, Interstitial collagenase (Homo sapiens, UniProt P03956); assay: not given; format: tissue-based, Rheumatoid synovial fibroblasts; conditions: not given;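 further: MMP-1 enzyme inhibition assay using a peptide substrate; in other assays of this panel Not Active means under 50% inhibition at 10 µM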
T2 sequence (P03956 whole entry): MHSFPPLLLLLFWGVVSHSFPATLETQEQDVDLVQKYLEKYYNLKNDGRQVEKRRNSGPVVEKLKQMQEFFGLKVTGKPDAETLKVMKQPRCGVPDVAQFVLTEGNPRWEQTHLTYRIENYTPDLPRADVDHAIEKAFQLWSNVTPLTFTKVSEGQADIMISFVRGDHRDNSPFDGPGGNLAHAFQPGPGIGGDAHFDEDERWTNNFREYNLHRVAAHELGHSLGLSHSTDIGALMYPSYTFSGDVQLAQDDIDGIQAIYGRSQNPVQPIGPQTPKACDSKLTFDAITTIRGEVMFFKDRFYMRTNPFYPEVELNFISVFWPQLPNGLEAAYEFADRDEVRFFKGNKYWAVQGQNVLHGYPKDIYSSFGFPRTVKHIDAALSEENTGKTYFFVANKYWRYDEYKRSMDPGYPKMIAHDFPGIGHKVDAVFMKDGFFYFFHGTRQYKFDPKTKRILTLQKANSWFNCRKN

Row | SMILES | IC50 | Ki
16 | O=P1(NCCCl)OCCCN1CCCl (stereo unspecified) [IFOSFAMIDE] | Not Active | –
17 | Nc1nc(=O)[nH]cc1F [FLUCYTOSINE] | Not Active | –
18 | N#C[C@H](O[C@@H]1O[C@H](CO[C@@H]2O[C@H](CO)[C@@H](O)[C@H](O)[C@H]2O)[C@@H](O)[C@H](O)[C@H]1O)c1ccccc1 [AMYGDALIN] | – | Not Active

target: T3, Adenosine receptor A1 (Homo sapiens, UniProt P30542); assay: not given; format: cell membranes, CHO, Membrane; conditions: cho;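 further: radioligand binding assay at the adenosine A1 receptor, with DPCPX serving as the labelled ligand; in other assays of this panel Not Active means under 50% inhibition at 10 µM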
T3 sequence (P30542 whole entry): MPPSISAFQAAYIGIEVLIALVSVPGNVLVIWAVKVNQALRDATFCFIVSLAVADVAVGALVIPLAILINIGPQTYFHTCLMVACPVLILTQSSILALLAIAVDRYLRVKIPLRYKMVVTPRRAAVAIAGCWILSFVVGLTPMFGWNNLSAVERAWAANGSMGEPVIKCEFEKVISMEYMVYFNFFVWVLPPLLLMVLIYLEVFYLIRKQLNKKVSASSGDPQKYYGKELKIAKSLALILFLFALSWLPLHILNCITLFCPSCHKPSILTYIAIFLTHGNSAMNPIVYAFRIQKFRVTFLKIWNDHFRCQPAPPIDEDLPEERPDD

Row | SMILES | IC50
19 | O=P1(NCCCl)OCCCN1CCCl (stereo unspecified) [IFOSFAMIDE] | Not Active
20 | Nc1nc(=O)[nH]cc1F [FLUCYTOSINE] | Not Active
21 | N#C[C@H](O[C@@H]1O[C@H](CO[C@@H]2O[C@H](CO)[C@@H](O)[C@H](O)[C@H]2O)[C@@H](O)[C@H](O)[C@H]1O)c1ccccc1 [AMYGDALIN] | Not Active

system: not listed separately; assay: DRUGMATRIX: Calcium Channel Type L, Phenylalkylamine radioligand binding (ligand: [3H] (-)-Desmethoxyverapamil (D-888)); format: cell membranes, Rattus norvegicus, Wistar, Brain, Membrane; conditions: Not Active = under 50% inhibition at 10 µM

Row | SMILES | IC50 | Ki
22 | O=P1(NCCCl)OCCCN1CCCl (stereo unspecified) [IFOSFAMIDE] | Not Active | Not Active
23 | Nc1nc(=O)[nH]cc1F [FLUCYTOSINE] | Not Active | Not Active
24 | N#C[C@H](O[C@@H]1O[C@H](CO[C@@H]2O[C@H](CO)[C@@H](O)[C@H](O)[C@H]2O)[C@@H](O)[C@H](O)[C@H]1O)c1ccccc1 [AMYGDALIN] | Not Active | Not Active

target: Mitogen-activated protein kinase 1 (Homo sapiens, UniProt P28482); assay: DRUGMATRIX: Protein Serine/Threonine Kinase, ERK2 enzyme inhibition (substrate: Myelin Basic Protein); set-up: species or system Escherichia coli; conditions: Not Active = under 50% inhibition at 10 µM
Sequence (P28482 whole entry): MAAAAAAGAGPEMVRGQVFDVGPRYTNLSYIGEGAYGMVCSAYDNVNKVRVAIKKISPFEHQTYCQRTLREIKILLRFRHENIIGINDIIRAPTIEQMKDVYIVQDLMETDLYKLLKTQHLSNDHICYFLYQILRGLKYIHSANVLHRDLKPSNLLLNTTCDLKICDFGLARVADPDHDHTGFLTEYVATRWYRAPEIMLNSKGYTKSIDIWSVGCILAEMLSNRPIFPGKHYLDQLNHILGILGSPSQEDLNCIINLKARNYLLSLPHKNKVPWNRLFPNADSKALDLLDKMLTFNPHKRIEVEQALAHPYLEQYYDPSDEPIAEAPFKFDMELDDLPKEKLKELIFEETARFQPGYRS

Row | SMILES | IC50
25 | O=P1(NCCCl)OCCCN1CCCl (stereo unspecified) [IFOSFAMIDE] | Not Active
26 | Nc1nc(=O)[nH]cc1F [FLUCYTOSINE] | Not Active
27 | N#C[C@H](O[C@@H]1O[C@H](CO[C@@H]2O[C@H](CO)[C@@H](O)[C@H](O)[C@H]2O)[C@@H](O)[C@H](O)[C@H]1O)c1ccccc1 [AMYGDALIN] | Not Active

target: Prostaglandin G/H synthase 1 (Homo sapiens, UniProt P23219); assay: biochemical; format: tissue-based, Platelet; conditions: platelet
Sequence (P23219 whole entry): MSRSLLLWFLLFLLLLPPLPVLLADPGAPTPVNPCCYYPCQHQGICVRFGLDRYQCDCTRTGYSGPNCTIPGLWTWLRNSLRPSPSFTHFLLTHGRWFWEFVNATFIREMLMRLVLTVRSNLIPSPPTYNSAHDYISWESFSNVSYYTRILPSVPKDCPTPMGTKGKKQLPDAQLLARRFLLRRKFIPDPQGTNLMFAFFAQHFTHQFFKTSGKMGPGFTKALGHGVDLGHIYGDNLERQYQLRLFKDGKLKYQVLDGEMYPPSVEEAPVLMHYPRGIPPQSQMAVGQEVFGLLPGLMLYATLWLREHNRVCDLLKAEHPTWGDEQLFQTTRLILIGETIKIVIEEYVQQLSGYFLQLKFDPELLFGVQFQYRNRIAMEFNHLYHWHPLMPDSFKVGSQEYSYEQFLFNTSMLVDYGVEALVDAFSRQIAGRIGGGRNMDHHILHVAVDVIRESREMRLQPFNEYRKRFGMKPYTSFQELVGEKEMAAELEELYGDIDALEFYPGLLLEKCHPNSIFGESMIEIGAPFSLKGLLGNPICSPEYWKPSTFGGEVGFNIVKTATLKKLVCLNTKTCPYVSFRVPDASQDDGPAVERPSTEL

Row | SMILES | IC50
28 | O=P1(NCCCl)OCCCN1CCCl (stereo unspecified) [IFOSFAMIDE] | Not Active
29 | Nc1nc(=O)[nH]cc1F [FLUCYTOSINE] | Not Active
30 | N#C[C@H](O[C@@H]1O[C@H](CO[C@@H]2O[C@H](CO)[C@@H](O)[C@H](O)[C@H]2O)[C@@H](O)[C@H](O)[C@H]1O)c1ccccc1 [AMYGDALIN] | Not Active

target: T4, Alpha-1D adrenergic receptor (Homo sapiens, UniProt P25100); assay: not given; format: cell membranes, HEK293, Membrane; conditions: hek293; further: in other assays of this panel Not Active means under 50% inhibition at 10 µM
T4 sequence (P25100 whole entry): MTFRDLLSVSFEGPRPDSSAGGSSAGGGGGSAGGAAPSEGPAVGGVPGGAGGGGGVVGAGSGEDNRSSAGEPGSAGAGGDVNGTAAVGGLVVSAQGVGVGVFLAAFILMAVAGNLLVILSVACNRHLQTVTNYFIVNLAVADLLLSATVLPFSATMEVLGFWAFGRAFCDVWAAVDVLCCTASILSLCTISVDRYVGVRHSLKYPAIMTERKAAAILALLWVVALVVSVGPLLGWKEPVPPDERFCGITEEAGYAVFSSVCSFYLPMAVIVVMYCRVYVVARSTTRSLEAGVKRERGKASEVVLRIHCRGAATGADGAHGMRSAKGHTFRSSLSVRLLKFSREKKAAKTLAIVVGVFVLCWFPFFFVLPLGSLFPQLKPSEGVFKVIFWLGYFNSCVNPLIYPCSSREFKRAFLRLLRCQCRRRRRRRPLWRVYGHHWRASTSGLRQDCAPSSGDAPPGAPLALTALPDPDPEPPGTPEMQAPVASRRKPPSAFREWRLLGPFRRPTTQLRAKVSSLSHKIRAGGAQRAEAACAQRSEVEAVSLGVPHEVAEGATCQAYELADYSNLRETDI

Row | SMILES | IC50
31 | O=P1(NCCCl)OCCCN1CCCl (stereo unspecified) [IFOSFAMIDE] | Not Active
32 | Nc1nc(=O)[nH]cc1F [FLUCYTOSINE] | Not Active
33 | N#C[C@H](O[C@@H]1O[C@H](CO[C@@H]2O[C@H](CO)[C@@H](O)[C@H](O)[C@H]2O)[C@@H](O)[C@H](O)[C@H]1O)c1ccccc1 [AMYGDALIN] | Not Active

system: not listed separately; assay: DRUGMATRIX: Phosphodiesterase PDE4 enzyme inhibition (substrate: [3H]cAMP + cAMP); conditions: u-937; Not Active = under 50% inhibition at 10 µM

Row | SMILES | IC50 | Ki
34 | O=P1(NCCCl)OCCCN1CCCl (stereo unspecified) [IFOSFAMIDE] | Not Active | Not Active
35 | Nc1nc(=O)[nH]cc1F [FLUCYTOSINE] | Not Active | Not Active
36 | N#C[C@H](O[C@@H]1O[C@H](CO[C@@H]2O[C@H](CO)[C@@H](O)[C@H](O)[C@H]2O)[C@@H](O)[C@H](O)[C@H]1O)c1ccccc1 [AMYGDALIN] | Not Active | Not Active

target: Melanocortin receptor 3 (Homo sapiens, UniProt P41968); assay: not given; format: cell membranes, Membrane; conditions: hek293; further: in other assays of this panel Not Active means under 50% inhibition at 10 µM
Sequence (P41968 whole entry): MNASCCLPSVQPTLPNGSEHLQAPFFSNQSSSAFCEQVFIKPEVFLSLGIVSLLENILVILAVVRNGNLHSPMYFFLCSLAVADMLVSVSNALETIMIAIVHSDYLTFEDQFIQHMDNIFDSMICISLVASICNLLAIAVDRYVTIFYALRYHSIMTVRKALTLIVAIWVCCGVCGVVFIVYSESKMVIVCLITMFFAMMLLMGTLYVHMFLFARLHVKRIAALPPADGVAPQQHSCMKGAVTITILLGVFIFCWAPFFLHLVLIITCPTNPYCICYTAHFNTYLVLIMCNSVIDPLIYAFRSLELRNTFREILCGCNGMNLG

Row | SMILES | IC50
37 | O=P1(NCCCl)OCCCN1CCCl (stereo unspecified) [IFOSFAMIDE] | Not Active
38 | Nc1nc(=O)[nH]cc1F [FLUCYTOSINE] | Not Active
39 | N#C[C@H](O[C@@H]1O[C@H](CO[C@@H]2O[C@H](CO)[C@@H](O)[C@H](O)[C@H]2O)[C@@H](O)[C@H](O)[C@H]1O)c1ccccc1 [AMYGDALIN] | Not Active
